Test results as given in ChEMBL document CHEMBL1141520, “New cytotoxic saturated and unsaturated cyclohexanones from Anthemis maritima” (Bioorg Med Chem Lett, 2008).

What was measured:
Assay type in all cases: functional, cell-based
HCT-116 = assay: Antiproliferative activity against human HCT116 cells after 72 hrs by WST1 based assay; conditions: HCT-116, 72 h
HL-60 = assay: Antiproliferative activity against human HL60 cells after 72 hrs by WST1 based assay; conditions: HL-60, 72 h
U-937 = assay: Antiproliferative activity against human U937 cells after 72 hrs by WST1 based assay; conditions: U-937, 72 h
Jurkat = assay: Antiproliferative activity against human Jurkat T cells after 72 hrs by WST1 based assay
Caco-2 = assay: Antiproliferative activity against human CaCo2 cells after 72 hrs by WST1 based assay; conditions: Caco-2, 72 h
MCF7 = assay: Antiproliferative activity against human MCF7 cells after 72 hrs by WST1 based assay; conditions: MCF7, 72 h

| SMILES | IC50 (HCT-116) [µM] | IC50 (HL-60) [µM] | IC50 (U-937) [µM] | IC50 (Jurkat) [µM] | IC50 (Caco-2) [µM] | IC50 (MCF7) [µM] |
| --- | --- | --- | --- | --- | --- | --- |
| C=C1C(=O)O[C@@H]2C3O[C@]3(C)CC/C=C(\C)CC[C@@H]12 (stereo partly drawn) | 5.9 | 0.9 | 2.2 | 1.9 | 10.4 | 9.4 |
| CC(C)=CCCC(C)(O)[C@H]1CC(=O)C(CO)=C[C@@H]1O (stereo partly drawn) [ANTHEMINONE A] | 15 | 7.6 | 6.2 | 9 | 11 | 21 |
| C=C1C(=O)C[C@@H](C(C)(O)CCC=C(C)C)[C@H](O)[C@H]1O (stereo partly drawn) [ANTHEMINONE C] | 19 | 3.2 | 7.4 | 8.4 | 9.4 | 15 |
